Laboratory results published in publication PMC2653189 (PLoS ONE, 2009).

Experiments:
[1] = system: cell lines MDA-MB-453 and MCF7; test: Apoptosis assay, summary over the cell lines without constitutive Stat3 activity; format: cell-based; settings: Homo sapiens, concentrations up to 300 µM, read-out: EC50 apoptosis induction, MDA-MB-453 and MCF7
Method: (§1) Human breast carcinoma cell lines MDA-MB-468, MDA-MB-231, MBA-MD-435 and MCF7 were kindly provided by Dr. Powel H. Brown (Breast Cancer Center, Baylor College of Medicine). Breast cancer cell line, MDA-MB-453 was kindly provided by Dr. Shou Jiang (Breast Cancer Center, Baylor College of Medicine). All cell lines were grown in DMEM medium supplemented with 10% fetal bovine serum (FBS), 25,000 units penicillin G, 25,000 µg streptomycin, and 131.4 mg L-Glutamine and cultured in the incubator under the condition of 95% air, 5% CO2 at 37°C [33]. Cells were seeded at 2,500 cells/cm^2 into 12-well plates. At 80% confluency, cells were washed with PBS and supplemented with fresh medium containing compound or the topoisomerase I-inhibitor, camptothecin, at 0, 0.1, 0.3, 1, 3, 10, 30, 100, 300 µM. At 24 hours, treatment was terminated by removing the medium from each well. Cells were lysed with cell lysis buffer (600 µl for 30 minutes at 25°C). Cell lysate (200 µl) was centrifuged at 200 g for 10 minutes and 20 µl of each supernatant was assayed for nucleosomes using the Cell Death Detection ELISA (Roche Applied Science) as described by the manufacturer. The percent maximum nucleosome level was calculated by dividing the nucleosome level by the maximum nucleosome level achieved in the assay and multiplying by 100.
(§2) MDA-MB-468 (panel A), MDA-MB-231 (panel B), MDA-MB-435 (panel C), MCF7 (panel D) and MDA-MB-453 (panel E) were seeded in 12-well plates, grown overnight then treated with the indicated compound for 24 hr. Cells were centrifuged and the supernatants assayed for nucleosome levels by ELISA. The percent maximum nucleosome level was calculated (nucleosome level ÷ maximum nucleosome level achieved in the assay ×100) and plotted as a function of the log compound concentration. The best-fitting curve was determined using 4-ParameterLogistic Model/Dose Response One Site/XLfit 4.2, IDBS software and was used to determine the EC50 value (Table 3).

[2] = system: breast cancer cell lines with constitutive Stat3 activity—MDA-MB-468, MDA-MB-231 and MDA-MB-435; test: Apoptosis assay, summary over the cell lines with constitutive Stat3 activity; format: cell-based; settings: Homo sapiens, 24 hr, read-out: EC50 apoptosis induction, range over three cell lines
Method: as §1, §2

[3] = molecular target: Stat3 (Homo sapiens, UniProt P40763); test: Stat3/pY-peptide binding assay (SPR, BIAcore); settings: recombinant Stat3 500 nM; immobilized EGFR Y1068 phosphododecapeptide; 25°C; read-out: SPR IC50, inhibition of Stat3 binding to pY peptide ligand
Chain of Stat3 (P40763 whole entry, species assumed): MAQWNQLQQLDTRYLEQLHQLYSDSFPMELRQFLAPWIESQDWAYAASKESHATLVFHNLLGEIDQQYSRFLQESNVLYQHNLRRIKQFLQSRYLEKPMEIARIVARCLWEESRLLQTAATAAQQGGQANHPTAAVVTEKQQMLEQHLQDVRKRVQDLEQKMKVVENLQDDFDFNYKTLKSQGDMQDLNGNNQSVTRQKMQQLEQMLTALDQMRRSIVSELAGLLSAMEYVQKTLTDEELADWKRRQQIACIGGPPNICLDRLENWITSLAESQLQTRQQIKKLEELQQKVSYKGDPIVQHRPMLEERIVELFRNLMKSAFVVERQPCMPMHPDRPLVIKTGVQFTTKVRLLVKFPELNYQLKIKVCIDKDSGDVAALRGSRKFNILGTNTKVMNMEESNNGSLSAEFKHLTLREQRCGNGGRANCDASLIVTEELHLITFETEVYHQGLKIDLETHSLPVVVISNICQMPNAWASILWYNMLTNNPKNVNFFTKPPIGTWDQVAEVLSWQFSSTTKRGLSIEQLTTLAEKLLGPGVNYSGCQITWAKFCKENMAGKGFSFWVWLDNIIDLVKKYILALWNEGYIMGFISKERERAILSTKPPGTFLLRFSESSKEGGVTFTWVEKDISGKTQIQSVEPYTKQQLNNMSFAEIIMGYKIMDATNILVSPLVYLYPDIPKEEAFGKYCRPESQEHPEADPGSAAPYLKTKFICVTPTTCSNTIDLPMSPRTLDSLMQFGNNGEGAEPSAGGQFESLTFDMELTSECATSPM
Method: A control (Stat3 with DMSO but without compound) was run at the beginning and the end of each cycle (40 sample injections) to ensure that the integrity of the sensor chip was maintained throughout the cycle run. The average of the two controls was normalized to 100% and used to evaluate the effect of each compound on Stat3 binding. Responses were normalized by dividing the value at 2 min by the response obtained in the absence of compounds at 2 min and multiplying by 100.

[4] = system: IFN-γ-mediated Stat1 phosphorylation; test: Immunoblot of IFN-γ-mediated Stat1 phosphorylation in HepG2 cells; format: cell-based, human; settings: compound 300 µM 1 hour, IFN-γ 30 ng/ml 30 min
Method: The human hepatocellular carcinoma cell line (HepG2) was grown in 6-well plates under standard conditions. Cells were pretreated with compounds (0, 1, 3, 10, 30, 100 and 300 µM) for 1 hour then stimulated under optimal conditions with either interleukin-6 (IL-6; 30 ng/ml for 30 min) to activate Stat3 or interferon gamma (IFN-γ; 30 ng/ml for 30 min) to activate Stat1 [28]. Cultures were then harvested and proteins extracted using high-salt buffer, as described. Briefly, extracts were mixed with 2× sodium dodecyl sulfate (SDS) sample buffer (125 mM Tris-HCL pH 6.8; 4% SDS; 20% glycerol; 10% 2-mercaptoethanol) at a 1∶1 ratio and heated for 5 minutes at 100°C. Proteins (20 µg) were separated by 7.5% SDS-PAGE and transferred to polyvinylidene fluoride (PVDF) membrane (Millipore, Waltham, MA) and immunoblotted. Prestained molecular weight markers (BioRad; Hercules, CA) were included in each gel. Membranes were probed serially with antibody against Stat1 pY701 or Stat3 pY705 followed by antibody against Stat1 or Stat3 (Transduction labs, Lexington, KY) then antibody against β–actin (Abcam, Cambridge, MA). Membranes were stripped between antibody probing using Restore™ Western Blot Stripping Buffer (Thermo Fisher Scientific Inc., Waltham, MA) per the manufacturer's instructions. Horseradish peroxidase-conjugated goat-anti-mouse IgG was used as the secondary antibody (Invitrogen Carlsbad, CA) and the membranes were developed with enhanced chemiluminescence (ECL) detection system (Amersham Life Sciences Inc.; Arlington Heights, IL.).
Figure 2 Effect of compounds on ligand-mediated Stat3 and Stat1 phosphorylation. […] Cells were then stimulated with IL-6 (30 ng/ml) for 30 min. Protein extracts of cells were separated by SDS-PAGE, blotted and developed serially with antibodies to pStat3, total Stat3 and β-actin. Blots were stripped between each antibody probing. Band intensities were quantified by densitometry. The value of each pStat3 band was divided by its corresponding total Stat3 band intensity; the results were normalized to the DMSO-treated control value. This value was plotted as a function of the log compound concentration. The best-fitting curve was determined using 4-Parameter Logistic Model/Dose Response/XLfit 4.2, IDBS software and was used to calculate the IC50 value (Table 1). Each panel is representative of 3 or more experiments. In panel G, HepG2 cells were pretreated with DMSO alone or DMSO containing each of the compounds at a concentration of 300 µM for 60 min. Cells were then stimulated with IFN-γ (30 ng/ml) for 30 min. Protein extracts of cells were separated by SDS-PAGE and immunoblotted serially with antibodies to pStat1, total Stat1 and β-actin. Blots were stripped between each immunoblotting. The results shown are representative of 2 or more experiments.

O=C(O)c1ccc(C=CC(=O)c2ccc3c(c2)OCCO3)cc1 [Cpd3, 4-[3-(2,3-dihydro-1,4-benzodioxin-6-yl)-3-oxo-1-propen-1-yl]benzoic acid]
EC50 [1]: > 300 µM | EC50 [2]: 2.3 to 26.9 µM | IC50 [3]: 447 µM | Block of IFN-γ-stimulated Stat1 phosphorylation [4]: did not
